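In this assay, cells in 96-well plates receive the compound at five concentrations for 48 hours. Endpoints are linearly interpolated between the surrounding concentrations. The concentration for 50% growth inhibition is given as GI50. At the TGI there is no net growth.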
Assays:
Experiment in all cases: growth of human tumour cells (NCI), 48 h
[1] = test system: SNB-19 CNS
[2] = test system: T-47D breast
[3] = test system: DU-145 prostate
[4] = test system: UACC-62 melanoma
[5] = test system: A498 renal
[6] = test system: NCI/ADR-RES ovarian
[7] = test system: RPMI-8226 leukemia
[8] = test system: LOX IMVI melanoma
[9] = test system: BT-549 breast
[10] = test system: M14 melanoma
[11] = test system: HS 578T breast
[12] = test system: EKVX NSCLC
[13] = test system: MALME-3M melanoma
[14] = test system: OVCAR-4 ovarian
[15] = test system: SK-OV-3 ovarian
[16] = test system: UACC-257 melanoma
[17] = test system: CAKI-1 renal
[18] = test system: MDA-MB-231 breast
[19] = test system: SN12C renal
[20] = test system: RXF 393 renal
[21] = test system: U251 CNS
[22] = test system: ACHN renal
[23] = test system: NCI-H226 lung
[24] = test system: SNB-75 CNS
[25] = test system: SK-MEL-5 melanoma
[26] = test system: A549 NSCLC
[27] = test system: TK-10 renal
[28] = test system: OVCAR-3 ovarian
[29] = test system: OVCAR-8 ovarian
[30] = test system: UO-31 renal
[31] = test system: NCI-H23 lung
[32] = test system: SK-MEL-28 melanoma
[33] = test system: SF-539 CNS
[34] = test system: HCT-15 colon
[35] = test system: SF-295 CNS
[36] = test system: 786-0 renal
[37] = test system: PC-3 prostate
[38] = test system: NCI-H460 lung
[39] = test system: HCC-2998 colon
[40] = test system: K-562 leukemia
[41] = test system: HOP-62 NSCLC
[42] = test system: HOP-92 NSCLC
[43] = test system: HT29 colon
[44] = test system: SF-268 CNS
[45] = test system: IGROV1 ovarian
[46] = test system: HL-60(TB) leukemia
[47] = test system: MOLT-4 leukemia
[48] = test system: NCI-H522 lung
[49] = test system: KM12 colon
[50] = test system: SR leukemia
[51] = test system: SW-620 colon
[52] = test system: MCF7 breast
[53] = test system: COLO 205 colon
[54] = test system: SK-MEL-2 melanoma
[55] = test system: HCT-116 colon
[56] = test system: CCRF-CEM leukemia
[57] = test system: MDA-MB-435
[58] = test system: OVCAR-5 ovarian

SMILES: C=C1C(=O)O[C@H]2[C@H]1CC/C(COC(=O)c1ccc3ccccc3c1)=C\CC[C@@]1(C)O[C@@H]21
- GI50 [1]: 1360 nM
- TGI [1]: 2750 nM
- GI50 [2]: 1030 nM
- TGI [2]: 2730 nM
- GI50 [3]: 945 nM
- TGI [3]: 2230 nM
- GI50 [4]: 1220 nM
- TGI [4]: 2530 nM
- GI50 [5]: 1880 nM
- TGI [5]: 4500 nM
- GI50 [6]: 2320 nM
- TGI [6]: 10200 nM
- GI50 [7]: 281 nM
- TGI [7]: 869 nM
- GI50 [8]: 406 nM
- TGI [8]: 1460 nM
- GI50 [9]: 570 nM
- TGI [9]: 2030 nM
- GI50 [10]: 1130 nM
- TGI [10]: 2680 nM
- GI50 [11]: 1530 nM
- TGI [11]: 4510 nM
- GI50 [12]: 1630 nM
- TGI [12]: 3630 nM
- GI50 [13]: 1740 nM
- TGI [13]: 3470 nM
- GI50 [14]: 1520 nM
- TGI [14]: 3320 nM
- GI50 [15]: 3510 nM
- TGI [15]: 10800 nM
- GI50 [16]: 1390 nM
- TGI [16]: 2780 nM
- GI50 [17]: 1220 nM
- TGI [17]: 2460 nM
- GI50 [18]: 1350 nM
- TGI [18]: 3000 nM
- GI50 [19]: 1160 nM
- TGI [19]: 2870 nM
- GI50 [20]: 286 nM
- TGI [20]: 1480 nM
- GI50 [21]: 1210 nM
- TGI [21]: 2500 nM
- GI50 [22]: 1100 nM
- TGI [22]: 2320 nM
- GI50 [23]: 1420 nM
- TGI [23]: 3210 nM
- GI50 [24]: 1440 nM
- TGI [24]: 3050 nM
- GI50 [25]: 1630 nM
- TGI [25]: 3000 nM
- GI50 [26]: 1590 nM
- TGI [26]: 3430 nM
- GI50 [27]: 1520 nM
- TGI [27]: 2850 nM
- GI50 [28]: 538 nM
- TGI [28]: 1770 nM
- GI50 [29]: 1100 nM
- TGI [29]: 2560 nM
- GI50 [30]: 859 nM
- TGI [30]: 2110 nM
- GI50 [31]: 1600 nM
- TGI [31]: 3360 nM
- GI50 [32]: 1470 nM
- TGI [32]: 2960 nM
- GI50 [33]: 838 nM
- TGI [33]: 2230 nM
- GI50 [34]: 394 nM
- TGI [34]: 1660 nM
- GI50 [35]: 1540 nM
- TGI [35]: 3060 nM
- GI50 [36]: 1180 nM
- TGI [36]: 2650 nM
- GI50 [37]: 1240 nM
- TGI [37]: 2790 nM
- GI50 [38]: 1690 nM
- TGI [38]: 3750 nM
- GI50 [39]: 1750 nM
- TGI [39]: 3360 nM
- GI50 [40]: 390 nM
- TGI [40]: 5470 nM
- GI50 [41]: 1560 nM
- TGI [41]: 2970 nM
- GI50 [42]: 301 nM
- TGI [42]: 1810 nM
- GI50 [43]: 438 nM
- TGI [43]: 1650 nM
- GI50 [44]: 1280 nM
- TGI [44]: 2750 nM
- GI50 [45]: 703 nM
- TGI [45]: 2190 nM
- GI50 [46]: 849 nM
- TGI [46]: 3830 nM
- GI50 [47]: 503 nM
- TGI [47]: 3470 nM
- GI50 [48]: 739 nM
- TGI [48]: 2200 nM
- GI50 [49]: 1480 nM
- TGI [49]: 3160 nM
- GI50 [50]: 336 nM
- TGI [50]: > 26800 nM
- GI50 [51]: 356 nM
- TGI [51]: 1390 nM
- GI50 [52]: 457 nM
- TGI [52]: 2520 nM
- GI50 [53]: 1360 nM
- TGI [53]: 2940 nM
- GI50 [54]: 1200 nM
- TGI [54]: 2610 nM
- GI50 [55]: 379 nM
- TGI [55]: 1600 nM
- GI50 [56]: 280 nM
- TGI [56]: 1380 nM
- GI50 [57]: 1100 nM
- TGI [57]: 2450 nM
- GI50 [58]: 1590 nM
- TGI [58]: 3570 nM

— PubChem BioAssay (NCI)
